Columns and labels:
Test in all cases: Postemergence foliar-applied herbicidal mixtures, cereal crops, greenhouse (Example III)
Format in all cases: in vivo
[1] = test system: CIRAR (Cirsium arvense (L.) Scop., Canada thistle); settings: visual score 0 to 100 percent after 20-22 days
Experimental: (§1) Seeds of the desired test plant species were planted in Sun Gro MetroMix® 306 planting mixture, which typically has a pH of 6.0 to 6.8 and an organic matter content of about 30 percent, in plastic pots with a surface area of 103.2 square centimeters (cm^2). […] The plants were grown for 7-36 days in a greenhouse with an approximate 14 hour photoperiod which was maintained at about 18° C. during the day and about 17° C. during the night. Nutrients and water were added on a regular basis and supplemental lighting was provided with overhead metal halide 1000-Watt lamps as necessary. The plants were employed for testing when they reached the second or third true leaf stage.
(§2) Treatments consisted of the benzyl ester of 4-amino-3-chloro-5-fluoro-6-(4-chloro-2-fluoro-3-methoxy-phenyl)pyridine-2-carboxylic acid (Compound A), formulated as an SC, a second cereal herbicide alone and then both in combination.
(§3) Other herbicidal components were applied on an active ingredient basis and included acetolactate synthase (ALS)-inhibiting herbicides (sulfonamide chemical class) florasulam formulated as Derby® and pyroxsulam formulated as PowerFlex®. A measured aliquot of benzyl ester of 4-amino-3-chloro-5-fluoro-6-(4-chloro-2-fluoro-3-methoxy-phenyl)pyridine-2-carboxylic acid (Compound A) was placed in 25 milliliter (mL) glass vials and diluted in a volume of 1.25% (v/v) AgriDex® crop oil concentrated to obtain a stock solution. Compound requirements are based upon a 12 mL application volume at a rate of 187 liters per hectare (L/ha). […] Formulated compounds were applied to the plant material with an overhead Mandel track sprayer equipped with an 8002E nozzle calibrated to deliver 187 L/ha over an application area of 0.503 square meters (m^2) at a spray height of 18 inches (46 cm) above average plant canopy. Control plants were sprayed in the same manner with the solvent blank.
(§4) The treated plants and control plants were placed in a greenhouse as described above and watered by sub-irrigation to prevent wash-off of the test compounds. After 20-22 days, the condition of the test plants as compared with that of the control plants was determined visually and scored on a scale of 0 to 100 percent where 0 corresponds to no injury and 100 corresponds to complete kill.
(§5) Colby's equation was used to determine the herbicidal effects expected from the mixtures (Colby, S. R. 1967. Calculation of the synergistic and antagonistic response of herbicide combinations. Weeds 15:20-22.).
(§6) The following equation was used to calculate the expected activity of mixtures containing two active ingredients, A and B: Expected=A+B−(A×B/100)

[2] = test system: LAMPU (Lamium purpureum (L.), purple deadnettle); settings: Florasulam 1.25 gai/ha, visual score 0 to 100 percent after 20-22 days
Experimental: as §1, §2, §3, §4, §5, §6

[3] = test system: MATCH (Chamomilla chamomilla (L.) Rydb., scented mayweed); settings: Florasulam 3.75 gai/ha, visual score 0 to 100 percent after 20-22 days
Experimental: as §1, §2, §3, §4, §5, §6

[4] = test system: SASKR (Salsola iberica (L.), Russian thistle); settings: Florasulam 3.75 gai/ha, visual score 0 to 100 percent after 20-22 days
Experimental: as §1, §2, §3, §4, §5, §6

[5] = test system: VERPE (Veronica persica Poir., bird's-eye speedwell); settings: visual score 0 to 100 percent after 20-22 days
Experimental: as §1, §2, §3, §4, §5, §6

[6] = test system: VIOTR (Viola tricolor (L.), wild pansy); settings: Florasulam 3.75 gai/ha, visual score 0 to 100 percent after 20-22 days
Experimental: as §1, §2, §3, §4, §5, §6

COc1ncc(F)c2nc(S(=O)(=O)Nc3c(F)cccc3F)nn12 [Florasulam, N-(2,6-difluorophenyl)-8-fluoro-5-methoxy[1,2,4]triazolo[1,5-c]pyrimidine-2-sulfonamide, reference compound]
CIRAR Obs ([1]; Florasulam 1.25 gai/ha): 55%
CIRAR Obs ([1]; Florasulam 3.75 gai/ha): 40%
LAMPU Obs [2]: 10%
MATCH Obs [3]: 65%
SASKR Obs [4]: 30%
VERPE Obs ([5]; Florasulam 1.25 gai/ha): 10%
VERPE Obs ([5]; Florasulam 3.75 gai/ha): 10%
VIOTR Obs [6]: 65%

— patent US8906825B2, “Herbicidal compositions comprising 4-amino-3-chloro-5-fluoro-6-(4-chloro-2-fluoro-3-methoxyphenyl) pyridine-2-carboxylic acid or a derivative thereof and triazolopyrimidine sulfonamides” (Dow AgroSciences LLC, priority 2012, dated 2014)
